According to patent US20250034166A1, “POLYCYCLIC FUSED RING DERIVATIVES AND USE THEREOF” (Jacobio Pharmaceuticals Co., Ltd., priority 2021, published 2025):
Like-named read-outs stand apart in the source and are kept apart here.

Columns and labels:
AGS cells (K-Ras G12D) [1] = assay: Phospho-ERK1/2(THR202/TYR204) HTRF assay; assay type: cell-based; conditions: Homo sapiens, 2 hours incubation, read-out: p-ERK, IC50 AGS
Procedure: (§1) p-ERK (MAPK pathway) inhibition activity of each of compounds in a variety of K-Ras mutant and K-Ras WT cell lines indicated in Table 12 was evaluated. MKN-1 with K-Ras WT amplification is also a K-Ras dependent cell line.
(§2) Each of cells in culture medium was seeded in 96-well plates at density indicated in Table 16 and then put in a cell incubator to incubate overnight. The next day, the culture medium was removed and the compound diluted in assay medium was added in each well. After 2 hours incubation in a cell incubator, the assay medium in 96-well plates was removed, then 50 μL of 1× blocking reagent-supplemented lysis buffer (Cisbio) was added and the plates were incubated at 25° C. for 45 min with shaking. 10 μL of cell lysates from the 96-well plates were transferred to a 384-well plate (Greiner) containing […] HTRF® pre-mixed antibodies (Cisbio 64AERPEH). The plate was incubated 4 hours at 25° C. and then read HTRF signals on Tecan Spark multimode microplate reader. The data were analyzed using a 4-parameter logistic model to calculate IC50 values.

SW620 cells (K-Ras G12V) [2] = assay: Phospho-ERK1/2(THR202/TYR204) HTRF assay; assay type: cell-based; conditions: Homo sapiens, SW-620, 2 hours incubation, read-out: p-ERK, IC50 SW620
Procedure: as §1, §2

AGS cells (K-Ras G12D) [3] = assay: 2D cell growth inhibition assay (CellTiter-Glo); assay type: cell-based; conditions: Homo sapiens, 6 days, absolute IC50
Procedure: (§3) The cell growth inhibition activity of each of compounds was tested by performing cell growth inhibition assays on a variety of K-Ras mutant and K-Ras WT cell lines indicated in Table 14.
(§4) Each of cells in culture medium was plated in TC-treated 96-well plates at a density indicated in Table 14 and incubated in a cell incubator overnight. The next day, each of compounds was diluted in culture medium and added to the plates. After 6 days incubation in cell incubator, the cell viability was detected by CellTiter-Glo® Cell Viability Assay kit (Promega).

SW620 cells (K-Ras G12V) [4] = assay: 2D cell growth inhibition assay (CellTiter-Glo); assay type: cell-based; conditions: Homo sapiens, SW-620, 6 days, absolute IC50
Procedure: as §3, §4

[5] = tested on: AsPC-1 cells (K-Ras G12D); assay: 2D cell growth inhibition assay (CellTiter-Glo); assay type: cell-based; conditions: Homo sapiens, ASPC1, AsPC-1 (G12D), 6 days, absolute IC50
Procedure: as §3, §4

K-Ras G12D [6] = target: T1, K-Ras G12D (Homo sapiens, UniProt P01116, G12D); assay: biochemical
K-Ras G12V [7] = target: T2, K-Ras G12V (Homo sapiens, UniProt P01116, G12V); assay: biochemical
K-Ras G12D [8] = target: T1, K-Ras G12D; assay: biochemical; remark: listed apart in the source
K-Ras G12V [9] = target: T2, K-Ras G12V; assay: biochemical; remark: listed apart in the source

T2 sequence (P01116 1-169 isoform P01116-2 G12V): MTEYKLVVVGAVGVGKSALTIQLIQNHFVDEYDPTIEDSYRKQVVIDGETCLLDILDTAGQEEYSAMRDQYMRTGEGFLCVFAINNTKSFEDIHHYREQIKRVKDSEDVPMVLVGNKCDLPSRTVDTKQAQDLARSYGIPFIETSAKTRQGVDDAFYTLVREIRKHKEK
T1 sequence (P01116 1-169 isoform P01116-2 G12D): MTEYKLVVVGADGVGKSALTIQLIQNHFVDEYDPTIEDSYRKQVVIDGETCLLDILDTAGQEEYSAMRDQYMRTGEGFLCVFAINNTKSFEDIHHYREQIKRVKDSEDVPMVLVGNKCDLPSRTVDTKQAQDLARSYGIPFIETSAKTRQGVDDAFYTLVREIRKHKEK

Row | SMILES | IC50 (AGS cells (K-Ras G12D) [1]) [nM] | IC50 (SW620 cells (K-Ras G12V) [2]) [nM] | IC50 (AGS cells (K-Ras G12D) [3]) [nM] | IC50 (SW620 cells (K-Ras G12V) [4]) [nM] | IC50 [5] [nM] | IC50 (K-Ras G12D [6]) [nM] | IC50 (K-Ras G12V [7]) [nM] | IC50 (K-Ras G12D [8]) [nM] | IC50 (K-Ras G12V [9]) [nM]
1 | C#Cc1c(F)ccc2cc(O)cc(-c3nc4c5c(nc(OCC67CCCN6CC(F)C7)nc5c3F)N3CCOCCC3CO4)c12 (centres unmarked) [Compound 2] | 2.33 | 5.2 | 5.07 | 13.1 | 134 |  |  |  | 
2 | C#Cc1c(F)ccc2cc(O)cc(-c3cc4c5c(nc(OC[C@@]67CCCN6C[C@H](F)C7)nc5c3F)N3CCOCCC3CO4)c12 (some centres unmarked) [Compound 1] | 16.2 | 38.2 | 326 | 100 | 987 |  |  |  | 
3 | C#Cc1c(F)ccc2cc(O)cc(-c3nc4c5c(nc(OC[C@@]67CCCN6C[C@H](F)C7)nc5c3F)N3CCOCC3CO4)c12 (some centres unmarked) [Compound 11] | 26.3 | 16.8 | 31.8 | 25 | 346 |  |  |  | 
4 | C#Cc1c(F)ccc2cc(O)cc(-c3nc4c5c(nc(OC[C@@]67CCCN6C[C@H](F)C7)nc5c3F)N3CCCOC[C@@H]3CO4)c12 [Compound 6] | 1.5 | 10 | 7.57 | 5.61 | 80.1 |  |  |  | 
5 | CCc1c(F)ccc2cc(O)cc(-c3nc4c5c(nc(OC[C@@]67CCCN6C[C@H](F)C7)nc5c3F)N3CCOCC3CO4)c12 (some centres unmarked) [Compound 14] | 39.4 | 42.3 | 105 | 23.9 | 702 |  |  |  | 
6 | C#Cc1c(F)ccc2cc(O)cc(-c3nc4c5c(nc(OC[C@@]67CCCN6C[C@H](F)C7)nc5c3F)N3CCCOC[C@H]3CN4C)c12 [Compound 9] | 6.58 | 18.6 | 6.8 | 7.67 | 64.4 |  |  |  | 
7 | C#Cc1c(F)ccc2cc(O)cc(-c3nc4c5c(nc(OC[C@@]67CCCN6C[C@H](F)C7)nc5c3F)N3C5COCCC3(CO4)C5)c12 (some centres unmarked) [Compound 16] |  |  |  |  |  | > 1000 | > 1000 | 57.4 | 43.5
8 | CCc1c(F)ccc2cc(O)cc(-c3cc4c5c(nc(OC[C@@]67CCCN6C[C@H](F)C7)nc5c3F)N3CCOCCC3CO4)c12 (some centres unmarked) [Compound 4] |  |  |  |  |  | > 1000 | > 1000 | 32.7 | 14.7
9 | C#Cc1c(F)ccc2cc(O)cc(-c3nc4c5c(nc(OC[C@@]67CCCN6C[C@H](F)C7)nc5c3F)N3CCOCC3CCO4)c12 (some centres unmarked) [Compound 12] | 48 | 128 | 83.4 | 91.2 | 810 |  |  |  | 

Second part, led by results:

Row | IC50 (AGS cells (K-Ras G12D) [1]) [nM] | IC50 (SW620 cells (K-Ras G12V) [2]) [nM] | IC50 (AGS cells (K-Ras G12D) [3]) [nM] | IC50 (SW620 cells (K-Ras G12V) [4]) [nM] | IC50 [5] [nM] | SMILES | IC50 (K-Ras G12D [6]) [nM] | IC50 (K-Ras G12V [7]) [nM] | IC50 (K-Ras G12D [8]) [nM] | IC50 (K-Ras G12V [9]) [nM]
10 | 1.38 | 3.05 | 2.59 | 1.32 | 15.6 | C#Cc1c(F)ccc2cc(O)cc(-c3nc4c5c(nc(OC[C@@]67CCCN6C[C@H](F)C7)nc5c3F)N3CCCCCC3CO4)c12 (some centres unmarked) [Compound 22] |  |  |  | 
11 | 19.7 | 60.6 | 99 | 35.1 | 547 | C#Cc1c(F)ccc2cc(O)cc(-c3nc4c5c(nc(OC[C@@]67CCCN6C[C@H](F)C7)nc5c3F)N3CCCC3CO4)c12 (some centres unmarked) [Compound 21] |  |  |  | 
12 | 23 | 50.1 |  |  |  | C#Cc1c(F)ccc2cc(O)cc(-c3nc4c5c(nc(OC[C@@]67CCCN6C[C@H](F)C7)nc5c3F)N3CCCCC3CCO4)c12 (some centres unmarked) [Compound 23] |  |  |  | 
13 | 0.691 | 2.01 | 1.23 | 1.49 | 10.2 | C#Cc1c(F)ccc2cc(O)cc(-c3nc4c5c(nc(OC[C@@]67CCCN6C[C@H](F)C7)nc5c3F)N3CCCCC[C@H]3CO4)c12 [Compound 20] |  |  |  | 
14 | 2.32 | 5.13 |  |  |  | C#Cc1c(F)ccc2cc(O)cc(-c3nc4c5c(nc(OC[C@@]67CCCN6C[C@H](F)C7)nc5c3F)N3CCCCC3CO4)c12 (some centres unmarked) [Compound 19] |  |  |  | 
15 | 2.02 | 4.61 | 1.73 | 3.32 | 19.6 | C#Cc1c(F)ccc2cc(O)cc(-c3nc4c5c(nc(OC[C@@]67CCCN6C[C@H](F)C7)nc5c3F)N3CCCOCC3CO4)c12 (some centres unmarked) [Compound 3] |  |  |  | 
16 | 0.525 | 1.03 | 0.466 | 0.819 |  | C#Cc1c(F)ccc2cc(O)cc(-c3nc4c5c(nc(OC[C@@]67CCCN6C[C@H](F)C7)nc5c3F)N3CCCOC[C@H]3CO4)c12 [Compound 5] |  |  |  | 
